Patent US20250049904A1, “IMMUNOSTIMULATORY COMPOSITIONS” (VICTORIA LINK LIMITED, priority 2021, published 2025)

Assays:
[1] = system: liver TRM cells; assay: LPX-mOVA-CI058 vaccination of NKT cell-deficient mice; liver TRM cells; assay type: in vivo, TRAJ18-deficient mice; details: LPX vaccine with CI058, 28 days after vaccination
Experimental: Groups (n=3) of C57BL/6 mice or TRAJ18-deficient mice were vaccinated with LPX-mOVA-CI058, or injected with PBS vehicle. The TRAJ18-deficient strain cannot complete the TCR rearrangement required to form the TCR-alpha chain used by type I NKT cells, and therefore are deficient in these cells, while the remaining T cell repertoire is largely intact. No prior transfer of OT-I cells was conducted, so results reflect endogenous T cell responses to vaccination. Mean number of TRM cells in liver 28 days after vaccination for each treatment group (±SEM) are shown; dots represent individual mice. **P<0.01,
C57BL/6 (B6), OT-I^1, and TRAJ18^−/− mice were bred and maintained at the Department of Microbiology and Immunology, The University of Melbourne, or the BRU, Malaghan Institute of Medical Research, New Zealand. […]
Lymphocytes were stained with monoclonal antibodies for: CD8a (53-6.7), Ly5.1 (A20), CD44 (IM7), CXCR6 (SA051D1), CX3CR1 (SA011F11), from BioLegend (Australian Biosearch, Karrinyup, WA. Australia), and CD62L (MEL-14) and CD69 (H1.2F3), from eBioscience (Jomar Life Research, Scoresby, VIC, Australia). […] Single-color positive control samples were used to adjust compensation and cells were analyzed by flow cytometry on a LSR Fortessa (BD Biosciences), or LSRII SORP using Flowjo software (Tree Star Inc.).

[2] = system: Plasmodium berghei sporozoites; assay: Mouse model of malaria infection: sporozoite challenge after vaccination; assay type: in vivo
Experimental: FIG. 3 provides a graphical representation showing that LPX-mRNA vaccines containing CI058 induce functional liver TRM responses that protect from Plasmodium berghei infection. The function of TRM induced with LPX vaccines containing CI058 was tested in a mouse model of malaria infection, which is known to require liver TRM cells to provide protection against infection. Analysis was in C57BL/6 mice with LPX-mOVA versus LPX-mOVA-CI058 vaccines, with prior transfer of OT-I cells to enhance T cell precursor frequency, and challenge was with P. berghei sporozoites from a parasite strain modified to express OVA. (A) Groups of mice (n=12-15) were subject to vaccination only. Percentages of TRM, TEM and TCM OT-I cells in each treatment group determined in liver 30 days later, assessed as in FIG. 1. Black bars: TRM cells; white bars: TEM cells; grey bars: TCM cells. […] (D) Groups of mice were subject to vaccination followed by challenge with 200 OVA-expressing P. berghei sporozoites 30 days later, and parasitemia was measured 6, 7,8, 10 and 12 days after infection. […] Groups of mice (n=12-15) were subject to vaccination, and then percentages of TRM cells, TEM cells and TCM cells in each treatment group were evaluated in liver 30 days later by flow cytometry using MHC/peptide tetramers containing a defined CD8 T cell epitope from RLP6, using gating strategy in FIG. 2. […]

CCCCCCCCCCCCCCCCCCCCCCCCCC(=O)N[C@@H](CO[C@H]1O[C@H](CSCC(=O)Nc2ccc(C3=C4C(C)=CC(C)=[N+]4[B-](F)(F)n4c(C)cc(C)c43)cc2)[C@H](O)[C@H](O)[C@H]1O)[C@H](O)[C@H](O)CCCCCCCCCCCCCC [CI058, (2S,3S,4R)-1-(6-Deoxy-6-((2-((4-(5,5-difluoro-1,3,7,9-tetramethyl-5H-4λ4,5λ4-dipyrrolo[1,2-c:2′,1′-f][1,3,2]diazaborinin-10-yl)phenyl)amino)-2-oxoethyl)thio)-α-D-galactopyranosyloxy)-2-hexacosanoylamino-3,4-octadecandiol]
liver TRM cell accumulation in NKT cell-deficient mice [1]: no liver TRM cell accumulation is induced | protection against sporozoite challenge ([2]; 200 OVA-expressing P. berghei sporozoites 30 days after LPX-mOVA vaccination, OT-I transfer): provide protection against challenge with P. berghei sporozoites | blood parasitemia ([2]; after challenge with OVA-expressing P. berghei sporozoites): significantly limit blood parasitemia
